Consider one molecule from patent US20230098403A1, “MAGNETIC RESONANCE IMAGING CONTRAST AGENT, PREPARATION METHOD AND USE THEREOF” (GUANGZHOU PINGLAN MEDICAL TECHNOLOGY CO., LTD., priority 2020, published 2023).

Several values for one entry are separate records, joined by “and”; a condition that tells them apart may be missing. Equal values may be shown once.

Data set [1] in a line: Pharmacokinetics study, Mn^2+ in whole blood by ICP-MS. Type of data set: in vivo. The conditions noted are these: SD rats, caudal vein 0.1 mmol/kg, non-compartment model. Here is the method: Totally 8 SD rats, 3 female rats and 5 male rats, weighed 220 to 240 g, were anesthetized by intraperitoneal injection of 3% pentobarbital sodium (50 mg/kg) and fixed in supine position, followed by removing neck hair and disinfecting routinely for later use.
Catheterization of left carotid artery comprises steps as follows: making a 20 mm longitudinal incision from the 3 mm left side of the median cervical line (the line from the sternum to the mandible) and 7 mm above the sternum; dissecting the skin to expose the subcutaneous tissue, and performing a blunt layer-by-layer dissection until the carotid artery was visualized; separating […] from its accompanied veins by blunt dissection; ligating distal portion and proximal portion of the heart respectively, wherein the distance between the nodes was 2.5-3.5 cm; inserting an indwelling needle into the artery near the node at the distal portion of the heart and fixing with a hemostatic clip, taking the needle out and releasing the node at the proximal portion of the heart; and injecting heparin lithium (150 μg/kg) to perform systemic heparinization in body.
Caudal vein was rapidly injected (<5s) with KBR0826 solution (0.05 mmol/mL) at a dose of 0.1 mmol/kg. Before injection and within 1 min, 2 min, 3 min, 5 min, 8 min, 13 min, 20 min, 30 min, and 50 min after the injection, 0.1 mL of carotid blood was respectively collected and placed in a 0.5 mL EP tube and stored at −20° C.
ICP-MS was configured with a power of 1150 W, a flow rate of argon for atomization gas of 0.95 L·min^−1, a flow rate of argon for auxiliary gas of 1.2 L·min^−1, a flow rate of argon for plasma gas of 18 L·min^−1, pump speed of 20 r·min^−1, an analytic mode being standard mode, repetition sampling in triple.
A set of standard solution was prepared with standard reagents (PerkinElmer, […] (1000 ppb): Ag, Al, As, Cs, Cu, Sr, Se, Mn, etc.) at different concentrations, i.e., at 1.0 ppb, 10 ppb, 50 ppb, 100 ppb, 200 ppb and 1000 ppb, to establish a standard curve (as shown in FIG. 3), and R^2 for the linear equation was >0.9999.
20 μL of sample (whole blood) was collected and diluted to 6 to 10 mL with 1% HNO3, such that the concentration of Mn^2+ ranged from 1 ppb to 100 ppb; sample IDs were generated and then the samples were measured, and Mn^2+ concentrations of the sample solutions were calculated according to the response intensity and the standard curve.
PKSolver 2.0 was used for calculating relevant pharmacokinetic parameters.

The test system of a further data set is QSG7701 hepatocyte line. Kind of data set: Hepatocyte toxicity test (MTT). It counts as cell-based, human. Here is the method: One or two days later, when the cell density meet the requirements of passage (the cell growth rate reaches 80-90%), the cells were washed 1 to 2 times with PBS, and then PBS was removed and 1 mL trypsin was added to completely cover the surface of the cells for 1 to 2 minutes, followed by observing under an inverted microscope. When more than 90% of the cells have become large and round and could be shaken gently to remove a little, complete medium (DMEM medium:FBS:antibiotic=100:10:1) was immediately added to stop digestion. The cells were blow and separated, transferred to a 15 mL centrifuge tube, which was centrifuged at 1000 rpm for 5 min at room temperature, then the supernatant was removed. The cells were transferred to a […] petri dish, 5 to 10 ml fresh complete medium was added for further culture. Culture medium was changed after 2-3 days or subcultured in a ratio of 1:2 and 1:3.
2) Cryopreservation: when the cells were in the logarithmic growth phase and the growth state was good, cryopreservation was selected and a cryopreservation solution (DMEM:FBS:DMSO=6:3:1) was prepared as above, the cells were collected after stopping digestion and centrifuging in a centrifuge tube. The cells were suspended in the cryopreservation solution, the cell concentration (lx 10^6/mL to 10×10^6/mL) were adjusted and then the cells were divided into cryopreservation tubes, the cell type, date, cryopreserved person, and passage times were recorded. The tubes were placed in a gradient freezer box in a −80° C. freezer and transferred to a liquid nitrogen tank for storage the next day.
3) Cell recovery: a cryovial containing QSG7701 was taken out from the liquid nitrogen tank and put in a 37° C. water bath for 1 to 2 minutes and shaken quickly to thaw. The thawed cell fluid was transferred to a 15 mL centrifuge tube, centrifuged at 1000 rpm for 5 min at room temperature, then the supernatant was removed, and 5 to 10 mL fresh complete culture medium was added into it, the cell type, date, and the name of the culture person were recorded, the cells were cultured in a 37° C. incubator with 5% CO2. […]
4) Finally, the 96-well plate was taken out, the medium was removed, and 100 μl DMSO was added to the plate, shaken horizontally and mixed for 2-3 minutes to fully dissolve the crystals, and the OD value was read at the detection line of 595 nm with a microplate reader.
Origin 9.0 software was used for data mapping, and measurement data were expressed as mean±standard deviation (±sd); SPSS14.0 statistical software was used for data statistics, and univariate analysis was used.

In data set [1], `O=C([O-])CN(CP(=O)([O-])O)C1CCCCC1N(CC(=O)[O-])CP(=O)([O-])O.[Mn+2].[Na+].[Na+]` (stereo not drawn) [KBR0826] displayed an AUC0-inf of 734.55 ± 333.06 mg·min/L, an AUC0-t of 712.59 ± 325.70 mg·min/L, an AUMC0-inf of 8419.63 ± 9547.34 mg/L · min^2 and a C0 of 616.61 ± 568.85 µg/mL. In data set [1], the MRT0-inf is 11.26 ± 8.93 min; the V stood at 0.38 ± 0.45 L/kg; the Vss worked out at 0.17 ± 0.30 L/kg; the “t1/2 (plasma half-life)” value was 23 min and 22.87 ± 13.04 min. The “survival rate of the QSG7701 hepatocyte line” value (from here on “survival rate”) in the data set on QSG7701 hepatocyte line (0.02 mmol/L, 0.1 mmol/L or 0.5 mmol/L, each detection time point (6 h, 12 h, 24 h, 48 h), MTT, OD 595 nm) is given as “does not decrease significantly”. Moreover, the “survival rate” value in the data set on QSG7701 hepatocyte line (2.5 mmol/L, 24 h and 48 h, p<0.05) is “decrease significantly”. Also, the “survival rate” value in the data set on QSG7701 hepatocyte line (12.5 mmol/L, at 12 h, p<0.05) is given as “decreases significantly”. The “inhibitory effect on the proliferation of QSG7701 hepatocyte line” value in the data set with QSG7701 hepatocyte line (within 24 hours, 25 times of the clinical dose (2.5 mmol/L)) was “non-obvious inhibitory effect”.

Usually Vss stands for the apparent volume that relates the amount in the body to the concentration in plasma or blood.
